Test results published in US20230114241A1, “METHODS OF TREATING EPILEPSY USING THE SAME” (Trevena, Inc., priority 2019, published 2023).

How the values were obtained:
[1] = biological target: T1, human sphingosine-1-phosphate receptor 1 (S1P1) (Homo sapiens, UniProt P21453); experiment: β-Arrestin2 recruitment assay (PathHunter), S1P1 CHO-K1 cells; format: cell-based
How it was run: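 Agonist-driven β-arrestin2 recruitment measured by β-galactosidase complementation after 60 min compound exposure at 37 °C and 1 h detection at room temperature. Cells: stable CHO-K1 line expressing tagged human S1P1 with EA-β-arrestin2, plated the night before. Data expressed relative to fingolimod.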
Target sequence in this assay (P21453 whole entry): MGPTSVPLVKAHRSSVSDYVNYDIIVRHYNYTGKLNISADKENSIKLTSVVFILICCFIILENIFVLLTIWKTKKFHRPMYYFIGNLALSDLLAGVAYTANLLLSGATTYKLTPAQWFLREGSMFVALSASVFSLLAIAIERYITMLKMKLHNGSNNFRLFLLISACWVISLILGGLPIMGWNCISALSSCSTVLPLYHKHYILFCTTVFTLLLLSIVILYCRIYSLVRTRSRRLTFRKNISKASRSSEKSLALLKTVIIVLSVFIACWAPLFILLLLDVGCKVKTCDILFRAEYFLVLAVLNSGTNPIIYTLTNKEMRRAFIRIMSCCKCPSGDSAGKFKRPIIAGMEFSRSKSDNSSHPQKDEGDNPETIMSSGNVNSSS
Target sequence in this assay (P32121 whole entry partner): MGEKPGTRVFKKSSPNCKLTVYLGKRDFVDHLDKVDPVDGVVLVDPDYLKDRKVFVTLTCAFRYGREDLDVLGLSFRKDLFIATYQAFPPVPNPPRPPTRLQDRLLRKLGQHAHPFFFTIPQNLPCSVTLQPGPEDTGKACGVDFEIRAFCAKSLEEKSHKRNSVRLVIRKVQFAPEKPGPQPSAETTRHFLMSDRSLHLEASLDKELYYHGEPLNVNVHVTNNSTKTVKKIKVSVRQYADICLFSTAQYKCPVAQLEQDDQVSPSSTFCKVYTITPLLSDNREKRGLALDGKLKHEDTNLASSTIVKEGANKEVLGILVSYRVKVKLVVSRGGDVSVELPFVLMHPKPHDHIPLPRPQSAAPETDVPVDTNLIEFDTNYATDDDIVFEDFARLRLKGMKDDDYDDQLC

[2] = biological target: T1, human sphingosine-1-phosphate receptor 1 (S1P1); experiment: Inhibition of cAMP production (HTRF cAMP HiRange), S1P1 CHO-K1 cells; format: cell-based
How it was run: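 Intracellular cAMP changes read by TR-FRET (HTRF HiRange, 1 h room temperature) after 30 min compound exposure at 37 °C. Cells: overnight-plated CHO-K1 stably expressing tagged human S1P1 with EA-β-arrestin2. Responses normalized to fingolimod.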
Target sequence in this assay (P21453 whole entry): as the sequence (P21453 whole entry) above

[3] = CHO-K1, β-arrestin2 recruitment, efficacy normalized to maximum efficacy of fingolimod, read-out: hS1P1 B-arrestin2 SPAN
[4] = β-arrestin2 recruitment, potency, read-out: hS1P1 B-arrestin2 pEC50 (converted)
[5] = CHO-K1, inhibition of cAMP production, efficacy normalized to maximum efficacy of fingolimod, read-out: hS1P1 CAMP SPAN
[6] = inhibition of cAMP production, potency, read-out: hS1P1 CAMP pEC50 (converted)
[7] = CHO-K1, efficacy normalized to maximum efficacy of fingolimod, read-out: hS1P1 B-arrestin2 SPAN
[8] = β-arrestin2 recruitment, S1P1, read-out: hS1P1 B-arrestin2 pEC50 (converted)
[9] = CHO-K1, efficacy normalized to maximum efficacy of fingolimod, read-out: hS1P1 CAMP SPAN
[10] = inhibition of cAMP production, S1P1, read-out: hS1P1 CAMP pEC50 (converted)

Emax [1, 3] | EC50 [1, 4] | Emax [2, 5] | EC50 [2, 6] | Emax [1, 7] | EC50 [1, 8] | Emax [2, 9] | EC50 [2, 10] | Compound | also measured
< 75% | > 10000 nM | < 75% | > 316 nM |  |  |  |  | Brc1ccccc1-c1nc(-c2ccc3c(c2)nnn3Cc2ccccn2)no1 [Compound 45, 5-(2-bromophenyl)-3-(1-(pyridin-2-ylmethyl)-1H-benzo[d][1,2,3]triazol-5-yl)-1,2,4-oxadiazole] | 
> 75% | < 10000 nM | > 75% | < 316 nM |  |  |  |  | Brc1ccccc1-c1nc(-c2ccc3c(c2)nnn3C2CCCC2)no1 [Compound 40, 5-(2-bromophenyl)-3-(1-cyclopentyl-1H-benzo[d][1,2,3]triazol-5-yl)-1,2,4-oxadiazole] | 
 |  |  |  | > 75% | > 10000 nM | < 75% | > 316 nM | CC(C)n1ccc2cc(-c3noc(-c4ccccn4)n3)ccc21 [Compound 397, 3-(1-isopropyl-1H-indol-5-yl)-5-(pyridin-2-yl)-1,2,4-oxadiazole] | 
 |  |  |  | < 75% | > 10000 nM | < 75% | > 316 nM | COc1ccc(-c2nc(-c3ccc4c(ccn4C(C)C)c3)no2)cc1 [Compound 393, 3-(1-isopropyl-1H-indol-5-yl)-5-(4-methoxyphenyl)-1,2,4-oxadiazole] | 
 |  |  |  | > 75% | < 10000 nM | > 75% | < 316 nM | CCC1(CC)CC(=O)c2cc(-c3noc(-c4cccnc4)n3)ccc2O1 [Compound 559, 2,2-diethyl-6-(5-(pyridin-3-yl)-1,2,4-oxadiazol-3-yl)chroman-4-one] | 
< 75% | > 10000 nM | < 75% | > 316 nM |  |  |  |  | COc1ccccc1-c1nnc(-c2ccc3[nH]oc(=O)c3c2)o1 [Compound 339, 5-[5-(2-methoxyphenyl)-1,3,4-oxadiazol-2-yl]-1,3-dihydro-2,1-benzoxazol-3-one] | 
 |  |  |  | < 75% | < 10000 nM | > 75% | < 316 nM | CCC1(CC)CC(=O)c2cc(-c3nc(-c4cncc(C(N)=O)c4)no3)ccc2O1 [Compound 537, 5-(5-(2,2-diethyl-4-oxochroman-6-yl)-1,2,4-oxadiazol-3-yl)nicotinamide] | 
< 75% | < 10000 nM | > 75% | > 316 nM |  |  |  |  | CCC1(CC)CC(=O)c2cc(-c3nc(-c4ccc(C)s4)no3)ccc2O1 [Compound 34, 2,2-diethyl-6-(3-(5-methylthiophen-2-yl)-1,2,4-oxadiazol-5-yl)chroman-4-one] | 
 |  |  |  | < 75% | > 10000 nM | < 75% | > 316 nM | COc1cccc(-c2csc(-c3ccc4c(ccn4C(C)C)c3)n2)c1 [Compound 405, 2-(1-isopropylindol-5-yl)-4-(3-methoxy-phenyl)thiazole] | 
 |  |  |  | < 75% | < 10000 nM | > 75% | < 316 nM | CC(C)n1ccc2cc(-c3noc(-c4ccncc4F)n3)ccc21 [Compound 399, 5-(3-fluoropyridin-4-yl)-3-(1-isopropyl-1H-indol-5-yl)-1,2,4-oxadiazole] | 
 |  |  |  | > 75% | > 10000 nM | > 75% | > 316 nM | CC(C)(CO)Cn1nnc2cc(-c3noc(-c4ccccc4Cl)n3)ccc21 [Compound 526, 3-(5-(5-(2-chloro-phenyl)-1,2,4-oxadiazol-3-yl)-1H-benzo[d][1,2,3]triazol-1-yl)-2,2-dimethylpropan-1-ol] | 
< 75% | > 10000 nM | < 75% | > 316 nM |  |  |  |  | COc1cnc(-c2nc(-c3ccc4c(c3)nnn4C(C)C)no2)cn1 [Compound 51, 3-(1-isopropyl-1H-benzo[d][1,2,3]triazol-5-yl)-5-(5-methoxypyrazin-2-yl)-1,2,4-oxadiazole] | 
 |  |  |  | > 75% | < 10000 nM | > 75% | < 316 nM | COc1ccccc1-c1noc(-c2cnc3c(c2)nnn3C(C)C)n1 [Compound 383, 3-(2-methoxyphenyl)-5-[3-(propan-2-yl)-3H-[1,2,3]triazolo[4,5-b]pyridin-6-yl]-1,2,4-oxadiazole] | 
< 75% |  | < 75% | > 316 nM |  |  |  |  | FC(F)(F)c1cccc(-c2noc(-c3ccc4c(c3)nnn4C3CCCC3)n2)c1 [Compound 118, 1-cyclopentyl-5-{3-[3-(trifluoromethyl)phenyl]-1,2,4-oxadiazol-5-yl}-1H-1,2,3-benzotriazole] | 
> 75% | < 10000 nM | > 75% | > 316 nM |  |  |  |  | COc1cccc(F)c1-c1noc(-c2ccc3c(ccn3C(C)C)c2)n1 [Compound 328, 3-(2-fluoro-6-methoxy-phenyl)-5-(1-isopropyl-indol-5-yl)-1,2,4-oxadiazole] | 
 |  |  |  | > 75% | < 10000 nM | > 75% | < 316 nM | Cn1cnc2ccc(-c3nnc(-c4ccc(NCC(F)F)c(C#N)c4)o3)cc21 [Compound 580, 2-[(2,2-difluoro-ethyl)amino]-5-[5-(1-methyl-1H-1,3-benzodiazol-6-yl)-1,3,4-oxadiazol-2-yl]benzonitrile] | 
< 75% | > 10000 nM | < 75% | > 316 nM |  |  |  |  | Cc1nccnc1-c1nc(-c2ccc3c(c2)nnn3C(C)C)no1 [Compound 44, 3-(1-isopropyl-1H-benzo[d][1,2,3]triazol-5-yl)-5-(3-methylpyrazin-2-yl)-1,2,4-oxadiazole] | 
 |  |  |  | > 75% | < 10000 nM | > 75% | < 316 nM | CCC1(CC)CC(=O)c2cc(-c3ncc(-c4ccccc4OC)cn3)ccc2O1 [Compound 594, 2,2-diethyl-6-(5-(2-methoxyphenyl)pyrimidin-2-yl)chroman-4-one] | 
 |  |  |  | > 75% | < 10000 nM | < 75% | < 316 nM | CC(C)Nc1ccc(-c2ncc(-c3ccc4c(c3)nnn4C(C)C)cn2)cc1C#N [Compound 596, 5-(5-(1-isopropyl-1H-benzo[d][1,2,3]triazol-5-yl)pyrimidin-2-yl)-2-(isopropyl-amino)benzonitrile] | 
 |  |  |  | > 75% | > 10000 nM | > 75% | > 316 nM | CCC1(CC)C/C(=N/O)c2cc(-c3nc(-c4cccnc4)no3)ccc2O1 [Compound 430, N-[(4Z)-2,2-diethyl-6-[3-(pyridin-3-yl)-1,2,4-oxadiazol-5-yl]-3,4-dihydro-2H-1-benzopyran-4-ylidene]hydroxylamine] | 
 |  |  |  | > 75% | < 10000 nM | > 75% | < 316 nM | Cc1cnccc1-c1noc(-c2ccc3c(c2)nnn3CC(C)(C)O)n1 [Compound 597, 2-methyl-1-{5-[3-(3-methylpyridin-4-yl)-1,2,4-oxadiazol-5-yl]-1H-1,2,3-benzotriazol-1-yl}propan-2-ol] | 
 |  |  |  | < 75% | > 10000 nM | > 75% | > 316 nM | CC1(C)Oc2ccc(-c3nc(-c4ccncc4)no3)cc2C1=O [Compound 480, 2,2-dimethyl-5-[3-(pyridin-4-yl)-1,2,4-oxadiazol-5-yl]-2,3-dihydro-1-benzofuran-3-one] | 
< 75% | > 10000 nM | < 75% | > 316 nM |  |  |  |  | CCC1(CC)CC(=O)c2cc(-c3nc(-c4ccc(S(=O)(=O)N(C)C)cc4)no3)ccc2O1 [Compound 30, 4-(5-(2,2-diethyl-4-oxochroman-6-yl)-1,2,4-oxadiazol-3-yl)-N,N-dimethylbenzene-sulfonamide] | 
 |  |  |  | > 75% | < 10000 nM | > 75% | < 316 nM | Cc1occc1-c1noc(-c2ccc3c(c2)nnn3C(C)C)n1 [Compound 491, 5-[3-(2-methylfuran-3-yl)-1,2,4-oxadiazol-5-yl]-1-(propan-2-yl)-1H-1,2,3-benzotriazole] | 
< 75% | > 10000 nM | < 75% | > 316 nM |  |  |  |  | Cc1nc(-c2ccccc2)oc1-c1cnc2c(c1)CC(=O)N2 [Compound 360, 5-(4-methyl-2-phenyl-1,3-oxazol-5-yl)-1H,2H,3H-pyrrolo[2,3-b]pyridin-2-one] | 
 |  |  |  | > 75% | > 10000 nM | > 75% | > 316 nM | CCC1(CC)CC(=O)c2cc(-c3nc(-c4ccc5cnccc5c4)no3)ccc2O1 [Compound 522, 2,2-diethyl-6-(3-(isoquinolin-6-yl)-1,2,4-oxadiazol-5-yl)chroman-4-one] | 
 |  |  |  |  |  |  |  | CCOP(=O)(Cc1ccc(-c2noc(-c3ccc4c(c3)nnn4C(C)C)n2)cc1)OCC [Compound 583, diethyl[(4-{5-[1-(propan-2-yl)-1H-1,2,3-benzotriazol-5-yl]-1,2,4-oxadiazol-3-yl}phenyl)methyl]phosphonate] | EC50 [1]: > 10000 nM; Emax ([1]; CHO-K1, read-out: hS1P1 B-arrestin2 SPAN): < 75%; EC50 [2]: > 316 nM; Emax ([2]; CHO-K1, read-out: hS1P1 CAMP SPAN): < 75%
> 75% | > 10000 nM | > 75% | > 316 nM |  |  |  |  | COc1ccccc1-c1nnc(-c2ccc3c(c2)nnn3C(C)C)o1 [Compound 35, 5-[5-(2-methoxyphenyl)-1,3,4-oxadiazol-2-yl]-1-(propan-2-yl)-1H-1,2,3-benzotriazole] | 
